From paper PMC6050274, “Buparlisib is a brain penetrable pan-PI3K inhibitor” (Scientific Reports, 2018)

Molecular target: T1, murine BCRP (Abcg2/Bcrp1) (Mus musculus, UniProt Q7TMS5)
T1 construct: expressed in transfected cells; host or cells: MDCK (MDCK-Bcrp1)
T1 sequence (Q7TMS5 1-657): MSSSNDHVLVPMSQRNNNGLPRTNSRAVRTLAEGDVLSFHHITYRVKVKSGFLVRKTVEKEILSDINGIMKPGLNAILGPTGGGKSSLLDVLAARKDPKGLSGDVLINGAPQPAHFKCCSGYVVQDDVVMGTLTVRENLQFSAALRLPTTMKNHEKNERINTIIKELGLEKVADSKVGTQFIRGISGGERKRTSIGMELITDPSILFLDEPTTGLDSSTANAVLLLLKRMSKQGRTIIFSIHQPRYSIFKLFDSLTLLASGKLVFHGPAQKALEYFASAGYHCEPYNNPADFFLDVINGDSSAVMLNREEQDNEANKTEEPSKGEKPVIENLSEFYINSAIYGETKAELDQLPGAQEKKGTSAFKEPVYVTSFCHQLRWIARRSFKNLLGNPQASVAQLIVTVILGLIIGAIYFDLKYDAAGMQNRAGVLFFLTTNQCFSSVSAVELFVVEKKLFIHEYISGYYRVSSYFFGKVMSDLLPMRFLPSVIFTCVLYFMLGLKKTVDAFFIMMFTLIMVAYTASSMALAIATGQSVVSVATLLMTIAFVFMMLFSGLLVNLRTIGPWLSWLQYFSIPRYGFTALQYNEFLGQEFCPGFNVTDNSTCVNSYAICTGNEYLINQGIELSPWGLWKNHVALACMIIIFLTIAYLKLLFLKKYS
Assay: Concentration equilibrium transport assay (CETA), MDCK-Bcrp1
Format: in vitro ADME
Conditions: MDCK-Bcrp1, 100 nM
From the text: Figure 1 Analysis of buparlisib substrate affinity for ABC transporters using in vitro transport assays. (A) The chemical structure of buparlisib. (B) A conventional transport assay (CTA) using LLC-PK1 cells in presence of zosuquidar to block endogenous (porcine) P-gp activity. […] (C) Concentration equilibrium transport assays (CETAs) using MDCK or LLC cells that overexpress murine BCRP, (Bcrp1), human BCRP, murine P-gp (Mdr1a) or human P-gp (MDR1). […] The P-gp inhibitor zosuquidar was used in all MDCK cell lines to inhibit endogenous P-gp activity and in LLC cell lines to validate possible P-gp-mediated translocations. […]
Conventional bidirectional transport assays (CTAs) and concentration equilibrium transport assays (CETAs) were performed as described previously. […] Transwell leakiness was determined as Carboxyl-[^14C]-inulin translocation exceeding 1.5% per hour and these wells were excluded from the analysis. […]
As described in detail before, CETA results were analysed with the General linear model repeated measures procedure of SPSS (v22; SPSS Inc, Chicago, IL)[25]. […] The standard error of the oral bioavailability was calculated using the formula below: SEF=F(SEAUCp.o./AUCp.o.)^2+(SEAUCi.v./AUCi.v.)^2 Buparlisib concentrations in WT and transporter knockout mice in vivo were compared using one-way analysis of variance followed by post hoc Bonferroni tests. […]

SMILES: Nc1cc(C(F)(F)F)c(-c2cc(N3CCOCC3)nc(N3CCOCC3)n2)cn1 [buparlisib]
- substrate of murine BCRP: very weak substrate
